According to patent US20260373266A1, “PROTEIN DEGRADERS AND USES THEREOF” (KYMERA THERAPEUTICS, INC., priority 2022, published 2026):
pKd: −log10 of the molar value.

Target: T1, DCAF1 WD40 domain (residues 1077-1390) (Homo sapiens, UniProt Q9Y4B6)
T1 construct: DCAF1 WD40 domain (residues 1077-1390)
Assay: DCAF1 binding assay by SPR (Biacore 8K+), DCAF1-3 KD
Conditions: 25 °C, read-out: DCAF1-3 SPR (KD)

T1 sequence (Q9Y4B6 1077-1390): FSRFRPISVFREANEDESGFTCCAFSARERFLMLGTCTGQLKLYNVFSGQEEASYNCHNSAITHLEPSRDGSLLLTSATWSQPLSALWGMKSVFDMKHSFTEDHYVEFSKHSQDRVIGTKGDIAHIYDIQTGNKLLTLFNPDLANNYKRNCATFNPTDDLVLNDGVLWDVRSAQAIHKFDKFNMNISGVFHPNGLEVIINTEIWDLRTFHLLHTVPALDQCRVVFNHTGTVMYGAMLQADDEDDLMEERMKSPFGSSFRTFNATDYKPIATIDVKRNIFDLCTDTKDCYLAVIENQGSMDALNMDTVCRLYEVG

Fc1cccc([C@@H]2CCC[C@@H](Nc3nccc(N4CCOCC4)n3)C2)c1 [I-185]
pKd: < 3.70

Fc1cccc(N2CC[C@@H](Nc3cc(N4CCOCC4)ncn3)C2)c1 [I-217]
pKd: < 3.70

NC(=O)C[C@H](NC(=O)c1cnn(CC2CCCC2)c1-c1ccccc1F)c1cccc(Cl)c1 [I-166]
pKd: < 3.70

Cc1cccc(C(=O)c2[nH]cc(C(=O)N[C@@H](CC(N)=O)c3cccc(Cl)c3)c2-c2c(C)cccc2F)c1 [I-627]
pKd: > 5.00

Fc1cccc(N2CCC[C@H]3[C@@H]2CCN3c2cc(N3CCCCC3)ccn2)c1 [I-580]
pKd: 3.70 to 4.00

C[C@@H](C(N)=O)[C@H](NC(=O)c1c[nH]nc1-c1ccccc1F)c1cccc(Cl)c1 [I-211]
pKd: < 3.70

Fc1cccc(N2CCC3CCCc4cnc(N5CCOCC5)cc4N[C@H]3C2)c1 (some centres unmarked) [I-226]
pKd: < 3.70

Fc1cc2ccccc2c(N2CCC[C@@H](Nc3cc(N4CCOCC4)ccn3)C2)n1 [I-72]
pKd: 3.70 to 4.00

CCNC(=O)C[C@H](NC(=O)c1cn[nH]c1-c1ccccc1F)c1cccc(Cl)c1 [I-83]
pKd: 4.00 to 5.00

Cc1sc2c(c1C)C(c1ccc(Cl)cc1)=N[C@@H](CC(=O)NCCCCCCCCCCCCCCCCCCCCC1CCN(c3ccnc(N4CC[C@@H]5[C@H]4CCCN5c4cccc(F)c4)c3)CC1)c1nnc(C)n1-2 [I-903]
pKd: < 3.70

Cc1cc2nccn2cc1N1CCC[C@@H](Nc2cc(N3CCOCC3)ccn2)C1 [I-765]
pKd: < 3.70

COCCc1ccc(F)c(-c2[nH]ncc2C(=O)N[C@@H](CC(N)=O)c2cccc(Cl)c2)c1 [I-250]
pKd: 4.00 to 5.00

Cc1sc2c(c1C)C(c1ccc(Cl)cc1)=N[C@@H](CC(=O)NCCOCCOCCOCCOCCn1cc(C(=O)N[C@@H](CC(N)=O)c3cccc(Cl)c3)c(-c3ccccc3F)n1)c1nnc(C)n1-2 [I-490]
pKd: 4.00 to 5.00

Fc1cccc(N2CCC[C@@H](Nc3cc(N4CCC5CCC4C5)ccn3)C2)c1 (some centres unmarked) [I-640]
pKd: 4.00 to 5.00

CN1CC=CC[C@@H]1CC(=O)N[C@@H](CC(N)=O)c1cccc(Cl)c1 [I-442]
pKd: < 3.70

C[C@@H]1CCCCC1c1[nH]ncc1C(=O)N[C@@H](CC(N)=O)c1cccc(Cl)c1 (some centres unmarked) [I-724]
pKd: > 5.00

O=C(CC1CC[C@@H](Nc2cc(N3CCOCC3)ccn2)CN1c1cccc(F)c1)Nc1cccc(Cl)c1 (some centres unmarked) [I-144]
pKd: < 3.70

Cc1ncc(N2CCOCC2)cc1N[C@@H]1CCCN(c2cccc(F)c2)C1 [I-527]
pKd: < 3.70

NC(=O)C[C@H](NC(=O)c1cn[nH]c1C1CCOCC1)c1cccc(Cl)c1 [I-344]
pKd: > 5.00

C=CC(=O)NC#Cc1n[nH]cc1C(=O)N[C@@H](CC(N)=O)c1cccc(Cl)c1 [I-473]
pKd: < 3.70

NC(=O)C[C@H](NC(=O)c1cn[nH]c1-c1ccncc1)c1cccc(Cl)c1 [I-336]
pKd: 4.00 to 5.00

NC(=O)C[C@H](NC(=O)c1cn[nH]c1-c1ccc(O)cc1)c1cccc(Cl)c1 [I-333]
pKd: 4.00 to 5.00

CC(C)Cn1cc(N2CCC[C@@H](Nc3cc(N4CCOCC4)ccn3)C2)cn1 [I-421]
pKd: < 3.70

Cc1c(F)ccc(F)c1-c1[nH]ncc1C(=O)N[C@H](c1cccc(Cl)c1)[C@@H]1CCOC1 [I-967]
pKd: 4.00 to 5.00

Cc1nc(N2CCC[C@@H](Nc3cc(N4CCOCC4)ccn3)C2)nc2ccccc12 [I-415]
pKd: 4.00 to 5.00

Fc1cccc(N2CCC[C@@H](N3CCc4c(N5CC6CC(C6)C5)ccnc43)C2)c1 [I-841]
pKd: > 5.00

COCCN(c1cc(N2CCCCC2)ccn1)[C@@H]1CCCN(c2cccc(F)c2)C1 [I-596]
pKd: 4.00 to 5.00

C=CC(=O)NCCCCC1CCN(c2ccnc(N3CC[C@@H]4[C@H]3CCCN4c3cccc(F)c3)c2)CC1 [I-852]
pKd: > 5.00

NC(=O)CC(NC(=O)c1cn[nH]c1-c1c(F)cc(Cl)cc1F)c1ccc(F)c(Cl)c1 (centres unmarked) [I-1049]
pKd: > 5.00

Fc1cccc(N2CC[C@@]3(CCN(c4cc(N5CCCCC5)ccn4)C3)C2)c1 [I-659]
pKd: 4.00 to 5.00

Fc1cccc(N2CCC[C@@H](Nc3cc(N4CCOCC4)cnn3)C2)c1 [I-20]
pKd: < 3.70

COCCOCC[C@H]1CN(c2cc(N3CCCCC3)ccn2)[C@@H]2CCCN(c3cccc(F)c3)[C@H]12 [I-931]
pKd: > 5.00

C=CC(=O)N1CCC[C@@H](Nc2cc(N3CCOCC3)ccn2)C1 [I-449]
pKd: < 3.70

c1cnc2cc(N3CCC[C@@H](Nc4nccc(N5CCOCC5)n4)C3)ccc2c1 [I-45]
pKd: 4.00 to 5.00

OC[C@H]1CC[C@@H](Nc2cc(N3CCCCC3)ccn2)CN1c1cccc(F)c1 [I-1008]
pKd: 4.00 to 5.00

Fc1cccc(N2CCC[C@@H](Nc3cc(N4C[C@H]5C[C@@H](C4)O5)ncn3)C2)c1 [I-311]
pKd: < 3.70

NC(=O)C[C@H](NC(=O)c1cn[nH]c1[C@@H]1CCCCO1)c1cccc(Cl)c1 [I-347]
pKd: < 3.70

Cc1ccc(N2CCC[C@@H](Nc3cc(N4CCOCC4)ncn3)C2)cc1 [I-8]
pKd: 3.70 to 4.00

Fc1cccc(N2CCC[C@@H](Nc3nccc(N4CCCCC4)n3)C2)c1 [I-319]
pKd: 3.70 to 4.00

C[n+]1ccc(N2CCOCC2)cc1N[C@@H]1C[C@@H](O)CN(c2cccc(F)c2)C1 [I-520]
pKd: < 3.70

C=CC(=O)Nc1ccc(-c2n[nH]cc2C(=O)N[C@@H](CC(N)=O)c2cccc(Cl)c2)cc1 [I-474]
pKd: < 3.70
